According to US7432276B2, “ABCA1 elevating compounds” (CV Therapeutics, Inc., priority 2005, dated 2008):

These compounds were tested on ABCA1 mRNA (assay: ABCA1 mRNA induction in THP-1 cells, QuantiGene branched DNA assay). Conditions: 10 μM test compound, 18-20 hours.
Format: cell-based
Method in brief: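 THP-1 cells, grown to subconfluence, treated with compounds at 10 and 3 μM in DMEM/BSA for 18–20 h. Lysates hybridized with ABCA1-specific probe 16–18 h at 53 °C; QuantiGene branched DNA luminescence gives fold increase over DMSO.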

SMILES	ABCA1 Induction Fold Increase over DMSO Vehicle [FOLD INCREASE]
COc1cccc2c1OC[C@H]1[C@H]2Nc2ccc(CCC(=O)O)cc2C1(C)C [Number 28, 3-((12aR,6aR)-4-methoxy-7,7-dimethyl-7,12,12a,6a-tetrahydrochromano[4,3-b]quinolin-9-yl)propanoic acid]	1.9
COc1cccc2c1[C@H]1Nc3ccc(C(=O)N4CCS(=O)(=O)CC4)cc3C(C)(C)[C@H]1CO2 [Number 121, ((6aR,12aS)-6a,7,12,12a-tetrahydro-1-methoxy-7,7-dimethyl-6H-chromeno[4,3-b]quinolin-9-yl)(1,1-dione-1,4-thiazaperhydroin-yl)methanone]	3.2
CC1(C)c2cc(C(O)(C(F)(F)F)C(F)(F)F)ccc2N[C@@H]2c3cc(OC(F)(F)F)ccc3OC[C@H]21 [Number 9, 2-[(12aS,6aS)-7,7-dimethyl-2-(trifluoromethoxy)(7,12,12a,6a-tetrahydrochromano[4,3-b]quinolin-9-yl)]-1,1,1,3,3,3-hexafluoropropan-2-ol]	2.4
Cc1cccc2c1OCC1[C@@H]2Nc2ccccc2C1(C)C (stereo partly drawn) [Number 32, (12aS)-4,7,7-trimethyl-7,12,12a,6a-tetrahydrochromano[4,3-b]quinoline]	4.9
COc1cccc2c1[C@H]1Nc3ccc(F)cc3C(C)(C)[C@H]1CO2 [Number 55, (12aS,6aR)-9-fluoro-1-methoxy-7,7-dimethyl-7,12,12a,6a-tetrahydrochromano[4,3-b]quinoline]	2.5
CC1(C)c2cc(C(O)(C(F)(F)F)C(F)(F)F)ccc2NC2c3cc(Br)ccc3OCC21 (centres unmarked) [Number 1, 2-(2-bromo-7,7-dimethyl(7,12,12a,6a-tetrahydrochromano[4,3-b]quinolin-9-yl))-1,1,1,3,3,3-hexafluoropropan-2-ol]	4.4
CC(C)Oc1ccc2c(c1)C(C)(C)C1COc3c(F)cccc3C1N2 (centres unmarked) [Number 102, 4-fluoro-7,7-dimethyl-9-(methylethoxy)-7,12,12a,6a-tetrahydrochromano[4,3-b]quinoline]	4.2
COc1cccc2c1OCC1C2Nc2ccc(Br)cc2C1(C)C (centres unmarked) [Number 75, 9-bromo-4-methoxy-7,7-dimethyl-7,12,12a,6a-tetrahydrochromano[4,3-b]quinoline]	7.4
COc1cccc2c1[C@H]1Nc3ccc(-c4ccc(F)cc4)cc3C(C)(C)[C@H]1CO2 [Number 109, (12aS,6aR)-9-(4-fluorophenyl)-1-methoxy-7,7-dimethyl-7,12,12a,6a-tetrahydrochromano[4,3-b]quinoline]	4.1
COC(=O)c1cccc(-c2ccc3c(c2)C(C)(C)[C@H]2COc4cccc(OC)c4[C@H]2N3)c1 [Number 113, methyl 3-((12aS,6aR)-1-methoxy-7,7-dimethyl-7,12,12a,6a-tetrahydrochromano[4,3-b]quinolin-9-yl)benzoate]	1.5
COc1cccc2c1[C@H]1Nc3ccccc3C(C)(C)[C@H]1CO2 [Number 53, (12aS,6aR)-1-methoxy-7,7-dimethyl-7,12,12a,6a-tetrahydrochromano[4,3-b]quinoline]	3.5
COc1cccc2c1OC[C@@H]1[C@@H]2Nc2ccc(C(=O)N3CCS(=O)(=O)CC3)cc2C1(C)C [Number 128, ((6aS,12aS)-6a,7,12,12a-tetrahydro-4-methoxy-7,7-dimethyl-6H-chromeno[4,3-b]quinolin-9-yl)(1,1-dione-1,4-thiazaperhydroin-yl)methanone]	2.7
COc1cccc2c1C1Nc3ccc(C(C)=O)cc3C(C)(C)C1CO2 (centres unmarked) [Number 43, 1-(1-methoxy-7,7-dimethyl-7,12,12a,6a-tetrahydrochromano[4,3-b]quinolin-9-yl)ethan-1-one]	4.1
COc1ccc(Br)c2c1OCC1C2Nc2ccc(OC(C)C)cc2C1(C)C (centres unmarked) [Number 83, 1-bromo-4-methoxy-7,7-dimethyl-9-(methylethoxy)-7,12,12a,6a-tetrahydrochromano[4,3-b]quinoline]	2.7
CC1(C)c2cc(C(O)(C(F)(F)F)C(F)(F)F)ccc2N[C@H]2c3ccccc3OC[C@H]21 [Number 70, 2-((6aS,12aR)-7,7-dimethyl(7,12,12a,6a-tetrahydrochromano[4,3-b]quinolin-9-yl))-1,1,1,3,3,3-hexafluoropropan-2-ol]	4.0
COc1cccc2c1[C@H]1Nc3ccc(OC(F)(F)F)cc3C(C)(C)[C@H]1CO2 [Number 57, ((12aS,6aR)-1-methoxy-7,7-dimethyl(7,12,12a,6a-tetrahydrochromano[4,3-b]quinolin-9-yloxy))trifluoromethane]	6.1
COc1cccc2c1OCC1C2Nc2ccc(N3CCS(=O)(=O)CC3)cc2C1(C)C (centres unmarked) [Number 21, 4-(4-methoxy-7,7-dimethyl-7,12,12a,6a-tetrahydrochromano[4,3-b]quinolin-9-yl)-1,4-thiazaperhydroine-1,1-dione]	5.6
COc1cccc2c1OCC1C2Nc2ccc(C(N)=O)cc2C1(C)C (centres unmarked) [Number 23, 4-methoxy-7,7-dimethyl-7,12,12a,6a-tetrahydrochromano[4,3-b]quinoline-9-carboxamide]	6.1
COc1cccc2c1OC[C@@H]1[C@H]2Nc2ccc(C(C)C)cc2C1(C)C [Number 46, (6aS,12aR)-4-methoxy-7,7-dimethyl-9-(methylethyl)-7,12,12a,6a-tetrahydrochromano[4,3-b]quinoline]	4.2
COc1cccc2c1[C@H]1Nc3ccc(-c4cc[nH]n4)cc3C(C)(C)[C@H]1CO2 [Number 111, (12aS,6aR)-1-methoxy-7,7-dimethyl-9-pyrazol-3-yl-7,12,12a,6a-tetrahydrochromano[4,3-b]quinoline]	4.7
COc1cccc2c1[C@H]1Nc3ccc(-c4nnn[nH]4)cc3C(C)(C)[C@H]1CO2 [Number 71, (12aS,6aR)-1-methoxy-7,7-dimethyl-9-(1,2,3,4-tetraazol-5-yl)-7,12,12a,6a-tetrahydrochromano[4,3-b]quinoline]	9.5

Same assay, conditions: Homo sapiens, 10 μM test compound, 18-20 hours, read-out: ABCA1 Induction Fold Increase over DMSO Vehicle

SMILES	fold induction at 10 µM
CCS(=O)(=O)N1CCN(C(=O)c2ccc3c(c2)C(C)(C)[C@H]2COc4cccc(OC)c4[C@H]2N3)CC1 [Number 132, ((6aR,12aS)-1-methoxy-6a,7,12,12a-tetrahydro-7,7-dimethyl-6H-chromeno[4,3-b]quinolin-9-yl)(4-ethanesulfonylpiperazin-1-yl)methanone]	4.3
CCOC(=O)c1cnn(-c2ccc3c(c2)C(C)(C)[C@H]2COc4cccc(OC)c4[C@H]2N3)c1C [Number 116, ethyl 1-((6aR,12aS)-6a,7,12,12a-tetrahydro-1-methoxy-7,7-dimethyl-6H-chromeno[4,3-b]quinolin-9-yl)-5-methyl-1H-pyrazole-4-carboxylate]	2.7
COC(=O)CCN1c2ccccc2C(C)(C)[C@H]2COc3cccc(OC)c3[C@@H]21 [Number 171, methyl 3-((6aR,12aR)-6a,7-dihydro-1-methoxy-7,7-dimethyl-6H-chromeno[4,3-b]quinolin-12(12aH)-yl)propanoate]	2.2
CCOP(=O)(Cc1ccc2c(c1)C(C)(C)[C@H]1COc3c(OC)cc(Br)cc3[C@H]1N2)OCC [Number 168, diethyl ((6aR,12aS)-2-bromo-6a,7,12,12a-tetrahydro-4-methoxy-7,7-dimethyl-6H-chromeno[4,3-b]quinolin-9-yl)methylphosphonate]	4
CCOP(=O)(Cc1ccc2c(c1)C(C)(C)C1COc3cccc(OC)c3C1N2)OCC (centres unmarked) [Number 180, diethyl(6a,7,12,12a-tetrahydro-1-methoxy-7,7-dimethyl-6H-chromeno[4,3-b]quinolin-9-yl)methylphosphonate]	2.2
CCS(=O)(=O)N1CCN(C(=O)c2ccc3c(c2)C(C)(C)[C@@H]2COc4c(OC)cccc4[C@H]2N3)CC1 [Number 133, ((6aS,12aS)-4-methoxy-6a,7,12,12a-tetrahydro-7,7-dimethyl-6H-chromeno[4,3-b]quinolin-9-yl)(4-ethanesulfonylpiperazin-1-yl)methanone]	3.8
COC(=O)CCN1c2ccccc2C(C)(C)[C@@H]2COc3cccc(OC)c3[C@@H]21 [Number 170, methyl 3-((6aS,12aR)-6a,7-dihydro-1-methoxy-7,7-dimethyl-6H-chromeno[4,3-b]quinolin-12(12aH)-yl)propanoate]	2.3
COc1ccc2c(c1)C(C)(C)[C@@H]1COc3cccc(OC)c3[C@H]1N2C [Number 176, (6aS,12aS)-6a,7,12,12a-tetrahydro-1,9-dimethoxy-7,7,12-trimethyl-6H-chromeno[4,3-b]quinoline]	2.9
COc1cccc2c1[C@H]1Nc3ccc(-n4cc(C(=O)N(C)C)cn4)cc3C(C)(C)[C@H]1CO2 [Number 137, 1-((6aR,12aS)-6a,7,12,12a-tetrahydro-1-methoxy-7,7-dimethyl-6H-chromeno[4,3-b]quinolin-9-yl)-N,N-dimethyl-1H-pyrazole-4-carboxamide]	7
COc1cccc2c1OC[C@H]1[C@@H]2Nc2ccc(-c3ccc(F)cc3)cc2C1(C)C [Number 99, (12aS,6aR)-9-(4-fluorophenyl)-4-methoxy-7,7-dimethyl-7,12,12a,6a-tetrahydrochromano[4,3-b]quinoline]	1.7
COc1cc(-c2cn[nH]c2)cc2c1OC[C@H]1[C@@H]2Nc2ccc(-c3cnco3)cc2C1(C)C [Number 159, (6aR,12aS)-6a,7,12,12a-tetrahydro-4-methoxy-7,7-dimethyl-9-(oxazol-5-yl)-2-(1H-pyrazol-4-yl)-6H-chromeno[4,3-b]quinoline]	7.6
